{"source": "ChEMBL document CHEMBL6087454", "about": "“Identification of Novel Organo-Se BTSA-Based Derivatives as Potent, Reversible, and Selective PPARγ Covalent Modulators for Antidiabetic Drug Discovery” (J Med Chem, 2025)", "key": {"Mus musculus [1]": {"tested_on": "Mus musculus", "experiment": "Antidiabetic activity in male db/db mouse model assessed as downregulation of aP2 gene expression in liver at 2.5 to 10 mg/kg/day, ip administered for 4 weeks by RT-qPCR analysis", "type": "functional, organism-based", "details": "dose 2.5-10 mg/kg/day"}, "Mus musculus [2]": {"tested_on": "Mus musculus", "experiment": "Antidiabetic activity in male db/db mouse model assessed as downregulation of CD36 gene expression in liver at 2.5 to 10 mg/kg/day, ip administered for 4 weeks by RT-qPCR analysis", "type": "functional, organism-based", "details": "dose 2.5-10 mg/kg/day"}, "[3]": {"experiment": "Toxicity in male db/db mouse model assessed as effect on kidney morphology at 2.5 to 10 mg/kg/day, ip administered for 4 weeks", "type": "organism-based", "details": "in vivo, 672 h, dose 2.5-10 mg/kg/day"}, "Mus musculus [4]": {"tested_on": "Mus musculus", "experiment": "Antidiabetic activity in male db/db mouse model assessed as downregulation of FASN gene expression in liver at 2.5 to 10 mg/kg/day, ip administered for 4 weeks by RT-qPCR analysis", "type": "functional, organism-based", "details": "dose 2.5-10 mg/kg/day"}, "Mus musculus [5]": {"tested_on": "Mus musculus", "experiment": "Downregulation of PPAR-gamma protein expression in male db/db mouse white adipose tissue at 2.5 to 10 mg/kg/day, ip administered for 4 weeks by Western blotting analysis", "type": "functional, organism-based", "details": "dose 2.5-10 mg/kg/day"}, "[6]": {"experiment": "Toxicity in male db/db mouse model assessed as effect on heart weight at 2.5 to 10 mg/kg/day, ip administered for 4 weeks", "type": "organism-based", "details": "in vivo, 672 h, dose 2.5-10 mg/kg/day"}, "Mus musculus [7]": {"tested_on": "Mus musculus", "experiment": "Antidiabetic activity in male db/db mouse model assessed as downregulation of PTP1B gene expression in white adipose tissue at 2.5 to 10 mg/kg/day, ip administered for 4 weeks by RT-qPCR analysis", "type": "functional, organism-based", "details": "dose 2.5-10 mg/kg/day"}, "Mus musculus [8]": {"tested_on": "Mus musculus", "experiment": "Antidiabetic activity in male db/db mouse model assessed as improvement in insulin tolerance at 2.5 to 10 mg/kg/day, ip preadministered for 4 weeks followed by glucose administration after 4 to 6 hrs of fasting and measured after 120 mins by intraperitoneal insulin tolerance test", "type": "functional, organism-based", "details": "dose 2.5-10 mg/kg/day"}, "[9]": {"molecular_target": "T1, Peroxisome proliferator-activated receptor gamma (Homo sapiens, UniProt P37231)", "T1 sequence (P37231 whole entry)": "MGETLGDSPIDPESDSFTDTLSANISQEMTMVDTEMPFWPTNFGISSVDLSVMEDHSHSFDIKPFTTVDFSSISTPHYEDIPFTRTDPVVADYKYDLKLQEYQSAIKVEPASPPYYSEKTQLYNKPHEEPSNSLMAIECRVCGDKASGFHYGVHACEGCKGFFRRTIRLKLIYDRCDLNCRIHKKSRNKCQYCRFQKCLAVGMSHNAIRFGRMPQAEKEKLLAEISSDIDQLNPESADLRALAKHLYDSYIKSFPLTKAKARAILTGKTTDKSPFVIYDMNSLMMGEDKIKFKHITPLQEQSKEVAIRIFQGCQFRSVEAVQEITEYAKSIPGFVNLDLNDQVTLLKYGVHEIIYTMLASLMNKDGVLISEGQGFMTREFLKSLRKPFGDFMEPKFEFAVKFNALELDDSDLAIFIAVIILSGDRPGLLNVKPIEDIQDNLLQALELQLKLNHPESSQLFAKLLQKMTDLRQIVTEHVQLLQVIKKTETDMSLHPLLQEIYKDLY", "experiment": "Displacement of fluormone pan-PPAR green from recombinant GST-tagged human PPAR-gamma ligand binding domain (E235 to Y505 residues) extracted from Escherichia coli BL21 (DE3) cells by TR-FRET assay"}, "Mus musculus [10]": {"tested_on": "Mus musculus", "experiment": "Antidiabetic activity in male db/db mouse model assessed as downregulation of C/EBPalpha gene expression in liver at 2.5 to 10 mg/kg/day, ip administered for 4 weeks by RT-qPCR analysis", "type": "functional, organism-based", "details": "dose 2.5-10 mg/kg/day"}, "Mus musculus [11]": {"tested_on": "Mus musculus", "experiment": "Antidiabetic activity in male db/db mouse model assessed as downregulation of LPL gene expression in white adipose tissue at 2.5 to 10 mg/kg/day, ip administered for 4 weeks by RT-qPCR analysis", "type": "functional, organism-based", "details": "dose 2.5-10 mg/kg/day"}, "[12]": {"experiment": "Toxicity in male db/db mouse model assessed as increase in white adipose tissue weight at 2.5 to 10 mg/kg/day, ip administered for 4 weeks", "type": "organism-based", "details": "in vivo, 672 h, dose 2.5-10 mg/kg/day"}, "Mus musculus [13]": {"tested_on": "Mus musculus", "experiment": "In vivo inhibition of Erk/Cdk5-mediated PPAR-gamma phosphorylation at Ser273 residue in male db/db mouse model assessed as decrease in phosphorylated-ERK expression in white adipose tissue at 2.5 to 10 mg/kg/day, ip administered for 4 weeks by Western blotting analysis", "type": "functional, organism-based", "details": "dose 2.5-10 mg/kg/day"}, "Mus musculus [14]": {"tested_on": "Mus musculus", "experiment": "Effect on cdk5 protein expression in male db/db mouse white adipose tissue at 2.5 to 10 mg/kg/day, ip administered for 4 weeks by Western blotting analysis", "type": "functional, organism-based", "details": "dose 2.5-10 mg/kg/day"}, "[15]": {"experiment": "Toxicity in male db/db mouse model assessed as increase in lipid accumulation in liver at 2.5 to 10 mg/kg/day, ip administered for 4 weeks by Oil red O staining based analysis", "type": "organism-based", "details": "in vivo, 672 h, dose 2.5-10 mg/kg/day"}, "Mus musculus [16]": {"tested_on": "Mus musculus", "experiment": "Downregulation of PPAR-gamma protein expression in male db/db mouse liver at 2.5 to 10 mg/kg/day, ip administered for 4 weeks by Western blotting analysis", "type": "functional, organism-based", "details": "dose 2.5-10 mg/kg/day"}, "Mus musculus [17]": {"tested_on": "Mus musculus", "experiment": "Antidiabetic activity in male db/db mouse model assessed as increase in Glut4 protein abundance in white adipose tissue at 2.5 to 10 mg/kg/day, ip administered for 4 weeks by Western blotting analysis", "type": "functional, organism-based", "details": "dose 2.5-10 mg/kg/day"}, "3T3-L1 [18]": {"tested_on": "3T3-L1", "experiment": "Inhibition of adipocyte differentiation in mouse 3T3-L1 cells assessed as reduction in lipid accumulation at 1 uM measured after 48 hrs by Oil red O staining based inverted microscopic analysis", "type": "functional, cell-based"}, "Mus musculus [19]": {"tested_on": "Mus musculus", "experiment": "Antidiabetic activity in male db/db mouse model assessed as increase in ADIPOQ protein abundance in liver at 2.5 to 10 mg/kg/day, ip administered for 4 weeks by Western blotting analysis", "type": "functional, organism-based", "details": "dose 2.5-10 mg/kg/day"}, "Mus musculus [20]": {"tested_on": "Mus musculus", "experiment": "Antidiabetic activity in male db/db mouse model assessed as upregulation of Glut4 gene expression in liver at 2.5 to 10 mg/kg/day, ip administered for 4 weeks by RT-qPCR analysis", "type": "functional, organism-based", "details": "dose 2.5-10 mg/kg/day"}, "[21]": {"molecular_target": "T2, Peroxisome proliferator-activated receptor gamma (Homo sapiens) (UniProt P37231)", "T2 sequence (whole entry)": "T1 sequence (P37231 whole entry)", "experiment": "Covalent binding affinity to recombinant PPAR-gamma ligand binding domain (unknown origin) at Cys285 residue at 0.4 uM incubated for 30 mins by rhodamine-maleimide staining based SDS-PAGE analysis", "details": "filed as partial agonist"}, "Mus musculus [22]": {"tested_on": "Mus musculus", "experiment": "Antidiabetic activity in male db/db mouse model assessed as downregulation of aP2 gene expression in white adipose tissue at 2.5 to 10 mg/kg/day, ip administered for 4 weeks by RT-qPCR analysis", "type": "functional, organism-based", "details": "dose 2.5-10 mg/kg/day"}, "3T3-L1 [23]": {"tested_on": "3T3-L1", "experiment": "Inhibition of adipogenesis in mouse 3T3-L1 cells assessed as downregulation of FASN gene expression at 1 uM measured after 48 hrs by RT-qPCR analysis", "type": "functional, cell-based"}, "Mus musculus [24]": {"tested_on": "Mus musculus", "experiment": "Antidiabetic activity in male db/db mouse model assessed as improvement in glucose tolerance at 2.5 to 10 mg/kg/day, ip preadministered for 4 weeks followed by glucose administration after 4 to 6 hrs of fasting and measured after 120 mins by intraperitoneal glucose tolerance test", "type": "functional, organism-based", "details": "dose 2.5-10 mg/kg/day"}, "Mus musculus [25]": {"tested_on": "Mus musculus", "experiment": "Antidiabetic activity in male db/db mouse model assessed as increase in ADIPOQ protein abundance in white adipose tissue at 2.5 to 10 mg/kg/day, ip administered for 4 weeks by Western blotting analysis", "type": "functional, organism-based", "details": "dose 2.5-10 mg/kg/day"}, "[26]": {"experiment": "Toxicity in male db/db mouse model assessed as decrease in liver weight at 10 mg/kg, ip administered for 4 weeks", "type": "organism-based", "details": "in vivo, 672 h"}}, "note": "The source made the active and inactive calls. The calls are words filed in the database; no cut-off is given here."}
{"smiles": "Cc1ccc(S(=O)(=O)Oc2ccc(S3(=O)=N[Se]c4cc(OS(=O)(=O)c5ccc(C)cc5)ccc43)cc2)cc1", "note": "(stereo unspecified)", "values": [{"measurement": "Activity", "setting": "Mus musculus [1]", "value": "Active"}, {"measurement": "Activity", "setting": "Mus musculus [2]", "value": "Active"}, {"measurement": "Activity", "setting": "[3]", "value": "Non-toxic"}, {"measurement": "Activity", "setting": "Mus musculus [4]", "value": "Active"}, {"measurement": "Activity", "setting": "Mus musculus [5]", "value": "Active"}, {"measurement": "Activity", "setting": "[6]", "value": "Non-toxic"}, {"measurement": "Activity", "setting": "Mus musculus [7]", "value": "Active"}, {"measurement": "Activity", "setting": "Mus musculus [8]", "value": "Active"}, {"measurement": "IC50", "setting": "[9]", "value": 346, "unit": "nM"}, {"measurement": "Activity", "setting": "Mus musculus [10]", "value": "Active"}, {"measurement": "Activity", "setting": "Mus musculus [11]", "value": "Active"}, {"measurement": "Activity", "setting": "[12]", "value": "Non-toxic"}, {"measurement": "inhibition", "setting": "Mus musculus [13]", "value": "Active"}, {"measurement": "Activity", "setting": "Mus musculus [14]", "value": "inactive"}, {"measurement": "Activity", "setting": "[15]", "value": "Non-toxic"}, {"measurement": "Activity", "setting": "Mus musculus [16]", "value": "inactive"}, {"measurement": "Activity", "setting": "Mus musculus [17]", "value": "Active"}, {"measurement": "inhibition", "setting": "3T3-L1 [18]", "value": "Active"}, {"measurement": "Activity", "setting": "Mus musculus [19]", "value": "Active"}, {"measurement": "Activity", "setting": "Mus musculus [20]", "value": "Active"}, {"measurement": "Activity", "setting": "[21]", "value": "Active"}, {"measurement": "Activity", "setting": "Mus musculus [22]", "value": "Active"}, {"measurement": "inhibition", "setting": "3T3-L1 [23]", "value": "Active"}, {"measurement": "Activity", "setting": "Mus musculus [24]", "value": "Active; Superior To That Of Reference Compound Gw9662"}, {"measurement": "Activity", "setting": "Mus musculus [25]", "value": "Active"}, {"measurement": "Activity", "setting": "[26]", "value": "Toxic"}]}
